Among the data in DBAASP are MIC values, retold here.

What is called MIC is the smallest concentration in the dilution series that meets the test's criterion for growth inhibition.

Test systems include Escherichia coli JM109; Pseudomonas aeruginosa; Staphylococcus aureus; Escherichia coli U16318; Escherichia coli K91BK; Salmonella typhimurium.
Common to all, as to assay: ≥ marks a high value that may be exact or a test limit, other limits are often not marked, values filed in µg/mL are converted to µM
Assay [1] relates to Staphylococcus aureus ATCC 6538P.
Assay [2] relates to Bacillus subtilis var. niger ATCC 9372.
Assay [3] concerns Staphylococcus aureus B38302.
The subject of assay [4] is Bacillus anthracis Sterne 34F2.
In assay [5] the test system is Escherichia coli JCM 1649.
Assay [6] has as its system Aeromonas salmonicida NCIMB 1102.
In assay [7] the test system is Vibrio anguillarum NCIMB 829.
Assay [8] has as its system Staphylococcus aureus IAM 1011.
For assay [9], the system named is Vibrio parahaemolyticus Vp+1.
Assay [10] concerns Shewanella putrefaciens IAM 1509.
Assay [11] deals with Photobacterium damselae subsp. piscicida Sp 9587.
Assay [12] concerns Bacillus subtilis IAM 1026.
In assay [13] the test system is Staphylococcus aureus FDA 209P.
Assay [14] has as its system Escherichia coli ATCC 25922.
For assay [15], the system named is Acholeplasma laidlawii A-EF22.
Assay [16] relates to Streptococcus sanguinis NY101.
For assay [17], the system named is Streptococcus mutans UA159.
Assay [18] has as its system Streptococcus gordonii Challis DL1.
Assay [19] relates to Streptococcus mitis ATCC 903.
Assay [20] concerns Pseudomonas aeruginosa PAK.

Converted amounts (≈) assume the structure as drawn.

For `CC[C@H](C)[C@H](NC(=O)[C@H](C)NC(=O)[C@H](CC(C)C)NC(=O)[C@H](CC(C)C)NC(=O)[C@H](CC(C)C)NC(=O)[C@H](C)N)C(=O)N[C@@H](CCCN=C(N)N)C(=O)N[C@@H](CCCN=C(N)N)C(=O)N[C@@H](CCCN=C(N)N)C(N)=O` [ALLLAIRRR], the minimal inhibitory concentration (MIC) in [1] worked out at 1.85 µM (≈ 2 µg/mL); against Escherichia coli JM109, 1.85 µM (≈ 2 µg/mL); against Pseudomonas aeruginosa, 2.77 µM (≈ 3 µg/mL); against Staphylococcus aureus, 29.6 µM (≈ 32 µg/mL).

As to `CC(=O)N[C@@H](C)C(=O)N[C@@H](CC(C)C)C(=O)N[C@@H](Cc1c[nH]c2ccccc12)C(=O)N[C@@H](CCCCN)C(=O)N[C@H](C(=O)N[C@@H](CC(C)C)C(=O)N[C@@H](CC(C)C)C(=O)N[C@@H](CCCCN)C(=O)N[C@@H](CCCCN)C(=O)N[C@H](C(=O)N[C@@H](CC(C)C)C(=O)N[C@@H](CCCCN)C(=O)N[C@@H](C)C(N)=O)C(C)C)[C@@H](C)O` [ALWKTLLKKVLKA], the MIC is 4.42 µM (≈ 6.86 µg/mL) in [2]; 25 µM (≈ 38.8 µg/mL) in [3]; 25 µM (≈ 38.8 µg/mL) against Escherichia coli U16318; no less than 100 µM against Escherichia coli K91BK; no less than 70.7 µM in [4].

`CC[C@H](C)[C@H](NC(=O)CNC(=O)CNC(=O)[C@@H](NC(=O)[C@@H](N)Cc1ccccc1)[C@@H](C)CC)C(=O)N[C@H](C(=O)N[C@@H](CO)C(=O)N[C@@H](Cc1ccccc1)C(=O)N[C@H](C(=O)N[C@@H](CCCCN)C(=O)N[C@@H](CCCCN)C(=O)N[C@@H](CC(C)C)C(=O)N[C@@H](Cc1ccccc1)C(=O)O)[C@@H](C)CC)[C@@H](C)CC` [FIGGIISFIKKLF]: the MIC in the assay with Salmonella typhimurium is no less than 33.7 µM; in assay [5], no less than 33.7 µM; in assay [6] it was no less than 33.7 µM; in assay [7] it was 8.43 µM (≈ 12.5 µg/mL); in assay [8] it was 2.11 µM (≈ 3.13 µg/mL); in assay [9] it was 16.9 µM (≈ 25 µg/mL). The MIC in [10] came to 4.21 µM (≈ 6.25 µg/mL); in assay [11], 8.43 µM (≈ 12.5 µg/mL); in [12], 4.21 µM (≈ 6.25 µg/mL).

Regarding `CC[C@H](C)[C@H](NC(=O)CNC(=O)[C@H](CCCCN)NC(=O)[C@@H](NC(=O)CNC(=O)[C@H](CCCCN)NC(=O)[C@@H](NC(=O)[C@@H](NC(=O)[C@H](CC(C)C)NC(=O)[C@H](CC(=O)O)NC(=O)[C@H](CCCCN)NC(=O)[C@@H](NC(=O)CNC(=O)[C@H](CCCCN)NC(=O)CNC(=O)[C@H](C)NC(=O)[C@H](Cc1ccccc1)NC(=O)[C@H](CCCCN)NC(=O)[C@H](CO)NC(=O)[C@H](Cc1ccccc1)NC(=O)[C@@H](NC(=O)CN)[C@@H](C)CC)[C@@H](C)CC)[C@@H](C)CC)[C@@H](C)CC)C(C)C)C(=O)N[C@@H](C)C(=O)N[C@@H](CCCCN)C(=O)N[C@@H](CCC(=O)O)C(=O)N[C@@H](C)C(=O)NCC(=O)N[C@@H](CCSC)C(=O)N[C@@H](CC(=O)O)C(=O)N[C@H](C(=O)N[C@H](C(=O)N[C@@H](CCCN=C(N)N)C(=O)N[C@H](C(=O)NCC(=O)N[C@H](C(=O)N[C@@H](CC(=O)O)C(=O)N[C@H](C(=O)N[C@@H](C)C(=O)NCC(=O)N[C@H]1CSSC[C@@H](C(=O)O)NC(=O)[C@H](CCC(=O)O)NC(=O)CNC(=O)[C@H](CCCCN)NC(=O)[C@H]([C@@H](C)CC)NC(=O)[C@H](CCCCN)NC1=O)[C@@H](C)CC)[C@@H](C)CC)[C@@H](C)O)[C@@H](C)CC)C(C)C` [GIFSKFAGKGIKDLIIKGVKGIAKEAGMDVIRTGIDIAGCKIKGEC], the MIC in [13] turned out to be 4.9 µM (≈ 23.3 µg/mL); in assay [14] it was 3.2 µM (≈ 15.2 µg/mL).

`CC[C@H](C)[C@H](NC(=O)CNC(=O)[C@H](CCCCN)NC(=O)[C@@H](NC(=O)CNC(=O)[C@H](CCCCN)NC(=O)[C@@H](NC(=O)[C@@H](NC(=O)[C@H](CCSC)NC(=O)[C@H](CC(N)=O)NC(=O)[C@H](CCCCN)NC(=O)[C@@H](NC(=O)CNC(=O)[C@H](CCCCN)NC(=O)CNC(=O)[C@H](C)NC(=O)[C@H](Cc1ccccc1)NC(=O)[C@H](CCCCN)NC(=O)[C@H](CO)NC(=O)[C@H](Cc1ccccc1)NC(=O)[C@H](CC(C)C)NC(=O)CN)[C@@H](C)CC)[C@@H](C)CC)[C@@H](C)CC)[C@@H](C)CC)C(=O)NCC(=O)N[C@@H](CCCCN)C(=O)N[C@@H](CCC(=O)O)C(=O)N[C@H](C(=O)NCC(=O)N[C@@H](CCSC)C(=O)N[C@@H](CC(=O)O)C(=O)N[C@H](C(=O)N[C@H](C(=O)N[C@@H](CCCN=C(N)N)C(=O)N[C@H](C(=O)NCC(=O)N[C@H](C(=O)N[C@@H](CC(=O)O)C(=O)N[C@H](C(=O)N[C@@H](C)C(=O)NCC(=O)N[C@H]1CSSC[C@@H](C(=O)O)NC(=O)[C@H](CCC(=O)O)NC(=O)CNC(=O)[C@H](CCCCN)NC(=O)[C@H]([C@@H](C)CC)NC(=O)[C@H](CCCCN)NC1=O)C(C)C)[C@@H](C)CC)[C@@H](C)O)[C@@H](C)CC)C(C)C)C(C)C` [GLFSKFAGKGIKNMIIKGIKGIGKEVGMDVIRTGIDVAGCKIKGEC]: the minimum inhibitory concentration (MIC) in assay [13] was 3 µM (≈ 14.3 µg/mL); in assay [14] it was 1.7 µM (≈ 8.13 µg/mL).

`CC(C)C[C@H](NC(=O)[C@H](CC(C)C)NC(=O)[C@H](CCCCN)NC(=O)[C@H](CC(C)C)NC(=O)[C@H](CC(C)C)NC(=O)[C@H](CC(C)C)NC(=O)[C@@H](N)CCCCN)C(=O)N[C@@H](CCCCN)C(=O)O` [KLLLKLLK]: the MIC in assay [15] was no less than 100 µM.

As to `CC[C@H](C)[C@H](NC(=O)[C@H](C)NC(=O)[C@H](CC(C)C)NC(=O)[C@H](CC(C)C)NC(=O)[C@H](Cc1cnc[nH]1)NC(=O)[C@H](C)NC(=O)[C@H](C)NC(=O)[C@H](CC(C)C)NC(=O)[C@@H](N)CC(C)C)C(=O)NCC(=O)N[C@@H](CCCN=C(N)N)C(=O)N[C@@H](CCCN=C(N)N)C(N)=O` [LLAAHLLAIGRR], the MIC in assay [1] is 7.67 µM (≈ 9.99 µg/mL); with Escherichia coli JM109, no less than 36.8 µM; with Staphylococcus aureus, 49.1 µM (≈ 64 µg/mL).

For the compound `CC[C@H](C)[C@H](NC(=O)[C@H](Cc1ccccc1)NC(=O)CNC(=O)CNC(=O)[C@H](CO)NC(=O)[C@H](Cc1cnc[nH]1)NC(=O)[C@H](CC(C)C)NC(=O)[C@H](CC(C)C)NC(=O)[C@H](Cc1cnc[nH]1)NC(=O)[C@H](Cc1cnc[nH]1)NC(=O)[C@H](CC(C)C)NC(=O)[C@H](CCCCN)NC(=O)[C@H](CCCCN)NC(=O)[C@H](CC(C)C)NC(=O)[C@H](CC(C)C)NC(=O)[C@H](CCCN=C(N)N)NC(=O)[C@H](CCCN=C(N)N)NC(=O)[C@H](Cc1c[nH]c2ccccc12)NC(=O)[C@@H](N)CCCN=C(N)N)C(=O)N[C@@H](CCCCN)C(=O)N[C@@H](Cc1cnc[nH]1)C(=O)N[C@@H](Cc1ccccc1)C(=O)N[C@H](C(=O)N[C@@H](Cc1cnc[nH]1)C(=O)N[C@@H](CCCN=C(N)N)C(=O)N[C@@H](Cc1ccccc1)C(N)=O)[C@@H](C)CC` [RWRRLLKKLHHLLHSGGFIKHFIHRF], the MIC in assay [16] turned out to be 9.6 µM (≈ 32 µg/mL); in [17], 2.4 µM (≈ 8 µg/mL); in [18], 4.8 µM (≈ 16 µg/mL); in assay [19] it was 9.6 µM (≈ 32 µg/mL); in assay [20] it was 9.6 µM (≈ 32 µg/mL); in the assay with Staphylococcus aureus it was 9.6 µM (≈ 32 µg/mL).

On to `CC[C@H](C)[C@H](NC(=O)[C@H](Cc1ccccc1)NC(=O)CNC(=O)CNC(=O)CNC(=O)[C@H](Cc1ccccc1)NC(=O)[C@H](Cc1c[nH]c2ccccc12)NC(=O)[C@H](CCCN=C(N)N)NC(=O)[C@H](Cc1c[nH]c2ccccc12)NC(=O)[C@H](CCCN=C(N)N)NC(=O)[C@H](Cc1c[nH]c2ccccc12)NC(=O)[C@@H](N)CCCN=C(N)N)C(=O)N[C@@H](CCCCN)C(=O)N[C@@H](Cc1cnc[nH]1)C(=O)N[C@@H](Cc1ccccc1)C(=O)N[C@H](C(=O)N[C@@H](Cc1cnc[nH]1)C(=O)N[C@@H](CCCN=C(N)N)C(=O)N[C@@H](Cc1ccccc1)C(N)=O)[C@@H](C)CC` [RWRWRWFGGGFIKHFIHRF], for which the MIC in assay [16] stood at 12.4 µM (≈ 32 µg/mL); in assay [17] it was 3.09 µM (≈ 8 µg/mL); in assay [18], 12.4 µM (≈ 32 µg/mL); in assay [19], 12.4 µM (≈ 32 µg/mL); in assay [20], 24.1 µM (≈ 62.5 µg/mL); against Staphylococcus aureus it was 12.4 µM (≈ 32 µg/mL).
